Assay results as given in US20150018566A1, “TUBULIN BINDING AGENTS” (priority 2011, published 2015).

Experiments:
rat aortic ring cultures [1] = assay: Aortic ring assay (anti-angiogenic effect); format: cell-based
HUVECs [2] = assay: Analysis of endothelial cell morphology; format: cell-based, human; details: for effect on endothelial cell morphology: 40 minutes exposure; for reversibility of the morphology effect: 3 h after drug washout
Protocol: Tubulin inhibitors are not only known for their anti-mitotic effect but also for their anti-vascular activity. Treatment with such agents was previously shown to cause vascular shutdown independently of a direct cytotoxic effect on tumour cells. […] The 1 h incubation period (after drug washout) aimed to identify any observable morphological changes of endothelial cells; however the 3 h incubation period served to indicate any signs of reversibility of this effect.
The effect of test compounds on endothelial cells' morphology was examined. 1×10^6 cells/ml HUVECs (1 ml) were seeded into 6-well plates and incubated overnight at 37° C. The next day, the medium was removed and replaced by control solutions (0.1% DMSO in medium) and test compounds diluted in fresh medium. The cells were incubated for 40 minutes at 37° C. Following that, each well was washed with medium to remove detached cells and incubated with fresh medium for a further 1 h or 3 h at 37° C. Next, the medium was removed and 0.5% crystal violet solution was prepared in 20% ethanol and 1 ml was added in each well for 15 minutes at RT. The wells were then washed 3 times with d. water (5 minutes each time). Wells were allowed to air dry and cell morphology was examined under an Olympus CKX41 inverted microscope using a x4 objective. Images were captured with an E-330 SLR camera system 1 h and 3 h after the washout of compounds. Digital images were processed using Cell̂ A software (Mason Technology, Ireland). The experiments were performed in triplicate and the results were presented as images of the morphological changes of endothelial cells after 1 h and 3 h of drug washout.

rat aortic ring cultures [3] = assay: Aortic ring assay (anti-vascular model); format: cell-based; details: for anti-vascular effect on existing microvessel network: 100 nM
Protocol: The aortic ring assay is an ideal assay for testing the activity of anti-vascular, anti-angiogenic or pro-angiongenic agents. This method was originally developed and modified by Nicosia. The aorta can be excised from mice or rats, cut into ˜1 mm rings and cultured in either basement membrane matrix (matrigel) or collagen gel. Following incubation for several days the rings start to generate outgrowths of branching microvessels which are lined by endothelial cells and supported by pericytes and fibroblasts. The angiogenic response of the aorta is a self-limited process regulated by endogenous growth factors including bFGF [13], VEGF [14], PDGF [15] and angiopoietins.
The rat aorta model is an ex vivo assay which combines advantages of both in vitro and in vivo models. The process of angiogenesis takes place in a defined culture environment which can be easily adapted to different experimental conditions according to the requirement of the study. The cells of the aortic outgrowth have not been modified by repeated passages in culture and thus newly formed microvessels reproduce the characteristics of the vasculature formed during angiogenesis in vivo [17-18]. There is no influx of leukocytes from circulating blood therefore inflammatory complications which affect the interpretation of in vivo assays are minimised. For the purpose of this study, rat aortic ring cultures were used to investigate firstly the anti-vascular and then the anti-angiogenic activity of test compounds.
The successful growth of the aortic rings into a mircovessel network was dependent on several factors including (i) the amount of periaortic fibroadipose tissue left on the ring, (ii) the orientation of the ring, the way which the ring was embedded into the matrigel and (iii) the volume of the matrigel used.
The aortic ring assay is an ex vivo assay which allows the analyst to examine the inhibition/stimulation of angiogenesis as well as the breakdown of existing vasculature. Basement membrane matrix (matrigel) was stored at −20° C. Prior to use, matrigel vial was placed on ice and kept at 4° C. overnight in order to thaw. The matrigel was kept on ice at all times for the duration of the experiment. Aortic rings were obtained by excising the thoracic aorta of 5-10 weeks old Wistar male rats and removing the fibroadipose tissue from the aortic wall. The rings were obtained by cross-sectioning the aorta at ˜1 mm intervals, removed any blood clots by washing several times with EBM-2. Matrigel (80 μl) was placed uniformly in each well of a 12-well plate and the aortic rings were then placed individually in between the matrigel layer with the lumen perpendicular to the surface of the plate. The matrigel solution was allowed to solidify for 30-40 minutes at 37° C. and 1 ml EBM-2 medium (supplemented with 2% FBS and […] streptomycin/penicillin solution) was added to each culture. The aortic rings were kept in a humidified CO2 incubator at 37° C. and fresh medium was replaced three times a week starting from day 3. Once an established microvessel network was developed (day 7-9), test compounds diluted in EBM-2 medium (1 ml) were added to each well and incubated at 37° C. for 24 h. The cultures were monitored for microvessel breakdown over time and images were taken 1 h, 4 h and 24 h after treatment using an Olympus CKX41 inverted microscope. Images were captured with an E-330 SLR camera system and processed using Cell̂ A software. Each compound concentration was tested in duplicate. Results were presented as images showing the microvessel breakdown at each time point.

HUVECs [4] = assay: Immunofluorescence staining of the microtubule; format: cell-based, human; details: 1 μM, 30 minutes, α-tubulin staining
Protocol: In order to confirm that test compounds are able to interfere with cells' tubulin cytoskeleton, immunofluorescence staining was performed. The effect of test compounds on the tubulin reorganization was visualised by staining of microtubules using an α-tubulin antibody and the cell nuclei using 4′,6-diamidino-2-phenylindole (DAPI).
The effect of the compounds on the microtubule disruption was examined by staining for α-tubulin. Sterile cover slips were placed in each well of a 6-well plate and 1×10^6 cells/ml (1 ml) HUVECs were seeded and allowed to attach on the cover slips overnight at 37° C. The following day the medium was removed from the wells, replaced by 1 μM of test compounds diluted in medium and incubated for 30 minutes at 37° C. Next, the medium was removed and the cells were fixed in pre-cooled methanol (1 ml) at −20° C. for 30 minutes. Then, the cells were washed twice with 1 ml PBS (5 minutes each time). The primary monoclonal antibody for a-tubulin was diluted in PBS (1:200) and added (1 ml) in each well for 1 h at room temperature (RT). After that, the cells were washed three times with 1 ml PBS and incubated with 1 ml of secondary Alexa Fluor 488 antibody diluted in PBS (1:1000) for 30 minutes at RT in the dark. The cells were washed for a further three times with 1 ml PBS and allowed to air-dry for 10 minutes. The cover slips containing the attached cells were mounted on microscopy slides using ProLong® gold antifade reagent with DAPI (for nuclear staining) and stored at 4° C. until time for analysis. Images were taken using an Olympus FV1000 Point Scanning Confocal Microscope provided by the Department of Biochemistry, TCD. Experiments were performed in duplicate at two independent times. The results were presented as images of the microtubule disruption of endothelial cells.

For `COc1ccc(C2=CC(=O)CCc3c2cc(OC)c(OC)c3OC)cc1OC(=O)C(CC(C)C)NC(=O)C(O)C(N)Cc1ccccc1.Cl` (stereo not shown) [Compound 44], the “anti-angiogenic effect (microvessel formation)” value (from here on “anti-angiogenic effect”) (rat aortic ring cultures [1]; 10 nM) was “slight decrease”, the “anti-angiogenic effect” value (rat aortic ring cultures [1]; 100 nM) was “significant (p<0.05) reduction” and the “effect on endothelial cell morphology” value (HUVECs [2]; 0.1 μM) was “minor effect”. The “effect on endothelial cell morphology” value (HUVECs [2]; 1 μM) was “cell monolayer was disturbed”, the “reversibility of the morphology effect” value (HUVECs [2]) was “reversible effect” and the “anti-vascular effect on established microvessel network” value (rat aortic ring cultures [3]; 0.1 μM) was “did not result in a clear anti-vascular effect”. For the same compound, the “anti-vascular effect on established microvessel network” value (rat aortic ring cultures [3]; 1 μM, 24 h incubation) was “apparent microvessel breakdown” and the microtubule disruption (HUVECs [4]) was “induce microtubule disruption”.
With `COc1ccc(C2=CC(=O)CCc3c2cc(OC)c(OC)c3OC)cc1O` [Compound 1, (Z)-8,9-dihydro-5-(3-hydroxy-4-methoxyphenyl)-1,2,3-trimethoxybenzo[7]annulen-7-one] the “anti-angiogenic effect” value (rat aortic ring cultures [1]; 1 nM) was “no inhibitory effect”, the “anti-angiogenic effect” value (rat aortic ring cultures [1]; 10 nM) was “significantly (p<0.01) inhibited the formation of microvessels” and the “anti-angiogenic effect” value (rat aortic ring cultures [1]; 100 nM) was “significantly (p<0.01) inhibited the formation of microvessels”. The “effect on endothelial cell morphology” value (HUVECs [2]; 0.1 μM) was “modifying the cells' structure”, the “reversibility of the morphology effect” value (HUVECs [2]) was “cells regained their shape” and the “anti-vascular effect on existing microvessel network” value (rat aortic ring cultures [3]; 4 h of treatment) was “evident changes in the microvessels' structure”. For the same compound, the “anti-vascular effect on existing microvessel network” value (rat aortic ring cultures [3]; 24 h of treatment) was “greater disruption” and the microtubule disruption (HUVECs [4]) was “Microtubule disruption was observed”.
For `COc1ccc(C2=CC(=O)CCc3c2cc(OC)c(OC)c3OC)cc1N` [Compound 28, 2-methoxy-5-(2,3,4-trimethoxy-7-oxo-6,7-dihydro-5H-benzo[7]annulen-9-yl)benzenaminium chloride], the “anti-angiogenic effect” value (rat aortic ring cultures [1]; 10 nM) was “did not demonstrate a decrease in microvessel formation”, the “anti-angiogenic effect” value (rat aortic ring cultures [1]; 50 nM) was “complete growth inhibition” and the “anti-angiogenic effect” value (rat aortic ring cultures [1]; 100 nM) was “complete growth inhibition”. For the same compound, the “effect on endothelial cell morphology” value (HUVECs [2]; 0.1 μM) was “modifying the cells' structure”, the “reversibility of the morphology effect” value (HUVECs [2]) was “cells regained their shape” and the “anti-vascular effect on existing microvessel network” value (rat aortic ring cultures [3]; 4 h of treatment) was “evident changes in the microvessels' structure”. The “anti-vascular effect on existing microvessel network” value (rat aortic ring cultures [3]; 24 h of treatment) was “greater disruption” and the microtubule disruption (HUVECs [4]) was “Microtubule disruption was observed”.
For `COc1ccc(C2=CC(=O)COc3c2cc(OC)c(OC)c3OC)cc1OC(=O)C(CC(C)C)NC(=O)C(O)C(N)Cc1ccccc1.Cl` (stereo not shown) [Compound 45, 2-methoxy-5-(7,8,9-trimethoxy-3-oxo-2H-1-benzoxepin-5-yl)phenyl 2-(3-amino-2-hydroxy-4-phenylbutanamido)-4-methylpentanoate], the “anti-angiogenic effect” value (rat aortic ring cultures [1]; 10 nM) was “insignificantly decreased”, the “anti-angiogenic effect” value (rat aortic ring cultures [1]; 50 nM) was “almost complete inhibition” and the “effect on endothelial cell morphology” value (HUVECs [2]; 0.1 μM) was “severe effect”. The “effect on endothelial cell morphology” value (HUVECs [2]; 1 μM) was “severe effect”, the “reversibility of the morphology effect” value (HUVECs [2]) was “did not seem to regain their original shape” and the “anti-vascular effect on established microvessel network” value (rat aortic ring cultures [3]; 1 nM) was “did not demonstrate any obvious anti-vascular activity”. For the same compound, the “anti-vascular effect on established microvessel network” value (rat aortic ring cultures [3]; 10 nM) was “did not demonstrate any obvious anti-vascular activity”, the “anti-vascular effect on established microvessel network” value (rat aortic ring cultures [3]; 50 nM, 4 h of treatment) was “sufficient to disrupt the microvessel network” and the “anti-vascular effect on established microvessel network” value (rat aortic ring cultures [3]; 50 nM, 24 h) was “more evident”. For the same compound, the microtubule disruption (HUVECs [4]) was “disruption of microtubule organisation”.
